# Laboratory results from patent US20120121591A1 (priority 2009, published 2012).
# Read-outs that look alike come from different tables or passages of the source. Positions of bridges follow the written chain, without caps; N, C: chain ends. Residues, ends and D or L forms follow the SMILES beside them.
# Assays:
# Type in all cases: cell-based
# hKv1.3 = hKv1.3 (Homo sapiens, UniProt P22001); test: cell-based; settings: Kv1.3 (IWQ) IC50 (nM, Avg)
# [1] = system: IL-2 secretion from T cells in human whole blood; settings: read-out: WB (IL-2) IC50 (nM, Avg)
# [2] = system: IFN-g secretion from T cells in human whole blood
# [3] = read-out: WB (IFNg) IC50 (nM, Avg)
# Sequence of hKv1.3 (P22001 whole entry): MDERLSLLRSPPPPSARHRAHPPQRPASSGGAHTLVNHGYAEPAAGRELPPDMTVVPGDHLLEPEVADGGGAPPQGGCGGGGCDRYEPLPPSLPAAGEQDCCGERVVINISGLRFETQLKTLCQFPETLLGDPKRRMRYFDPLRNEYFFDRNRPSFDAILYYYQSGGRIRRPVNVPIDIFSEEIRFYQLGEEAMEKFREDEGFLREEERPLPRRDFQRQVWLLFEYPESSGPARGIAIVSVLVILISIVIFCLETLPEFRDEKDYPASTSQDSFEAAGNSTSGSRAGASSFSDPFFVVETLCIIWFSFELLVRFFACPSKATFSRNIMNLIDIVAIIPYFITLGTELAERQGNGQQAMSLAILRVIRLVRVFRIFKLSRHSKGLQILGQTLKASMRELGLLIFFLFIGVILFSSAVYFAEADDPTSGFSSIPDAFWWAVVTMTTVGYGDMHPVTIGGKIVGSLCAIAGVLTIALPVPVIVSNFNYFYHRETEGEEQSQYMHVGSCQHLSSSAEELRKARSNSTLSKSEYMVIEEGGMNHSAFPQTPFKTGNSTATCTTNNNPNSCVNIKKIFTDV
Structure (SMILES),IC50 (hKv1.3) [nM],IC50 [1] [nM],"IC50 [2, 3] [nM]","IC50 ([2]; read-out: WB (IFNg) IC5- (nM, Avg)) [nM]"
"CC[C@H](C)[C@@H]1NC(=O)[C@H]([C@@H](C)O)NC(=O)[C@H](CC(=O)O)NC(=O)[C@H](CCC(=O)O)NC(=O)[C@@H](NC(=O)[C@H](CO)NC(=O)[C@@H](N)CCCNC(=N)N)CSSC[C@@H](C(N)=O)NC(=O)[C@H]([C@@H](C)O)NC(=O)CNC(=O)[C@@H]2CSSC[C@@H]3NC(=O)[C@H](CCCCN)NC(=O)[C@H](Cc4ccccc4)NC(=O)[C@H](C)NC(=O)[C@H]([C@@H](C)O)NC(=O)[C@H](CSSC[C@H](NC(=O)[C@H](Cc4ccccc4)NC(=O)[C@H](CO)NC(=O)[C@H](CC(C)C)NC(=O)[C@H](CCCNC(=N)N)NC(=O)[C@H](Cc4ccc(O)cc4)NC(=O)[C@H](CCCCN)NC(=O)[C@H](CCSC)NC(=O)[C@H](CO)NC(=O)[C@H](Cc4c[nH]cn4)NC(=O)[C@H](CCCNC(=N)N)NC3=O)C(=O)N[C@@H](CCCCN)C(=O)N[C@@H](CCCNC(=N)N)C(=O)N[C@@H]([C@@H](C)O)C(=O)N2)NC(=O)[C@H](CCCNC(=N)N)NC(=O)[C@H](CO)NC(=O)[C@H](CCC(=O)O)NC(=O)[C@@H]2CCCN2C1=O [[Glu4,9;Lys16,29;Arg18,30]ShK-amide] (H-RSCEDTIPESRCTAFKCRHSMKYRLSFCKRTCGTC-NH2; disulfide 3-35, 12-28, 17-32)",0.062,0.151,0.345,–
CC[C@H](C)[C@@H]1NC(=O)[C@@H](NC(=O)[C@H](CO)NC(=O)[C@@H](N)CCCNC(=N)N)CSSC[C@@H](C(=O)O)NC(=O)[C@H](CCCCN)NC(=O)CNC(=O)[C@@H]2CSSC[C@@H]3NC(=O)[C@H](CCC(N)=O)NC(=O)[C@H](Cc4ccccc4)NC(=O)[C@H](C)NC(=O)[C@H]([C@@H](C)O)NC(=O)[C@H](CSSC[C@H](NC(=O)[C@H](Cc4ccccc4)NC(=O)[C@H](CO)NC(=O)[C@H](CC(C)C)NC(=O)[C@H](CCCNC(=N)N)NC(=O)[C@H](Cc4ccc(O)cc4)NC(=O)[C@H](CCCCN)NC(=O)[C@H](CCSC)NC(=O)[C@H](CO)NC(=O)[C@H](Cc4c[nH]cn4)NC(=O)[C@H](CCCCN)NC3=O)C(=O)N[C@@H](CCCNC(=N)N)C(=O)N[C@@H](CCCCN)C(=O)N[C@@H]([C@@H](C)O)C(=O)N2)NC(=O)[C@H](CCCNC(=N)N)NC(=O)[C@H](CO)NC(=O)[C@H](CCCCN)NC(=O)[C@@H]2CCCN2C(=O)[C@H]([C@@H](C)CC)NC(=O)[C@H]([C@@H](C)O)NC(=O)[C@H](CC(=O)O)NC1=O [[Lys34]ShK],0.15,0.067,0.136,–
"CC[C@H](C)[C@@H]1NC(=O)[C@@H](NC(=O)[C@H](CO)NC(=O)[C@@H](N)CCCNC(=N)N)CSSC[C@@H](C(N)=O)NC(=O)[C@H]([C@@H](C)O)NC(=O)CNC(=O)[C@@H]2CSSC[C@@H]3NC(=O)[C@H](CCCCN)NC(=O)[C@H](Cc4ccccc4)NC(=O)[C@H](C)NC(=O)[C@H]([C@@H](C)O)NC(=O)[C@H](CSSC[C@H](NC(=O)[C@H](Cc4ccccc4)NC(=O)[C@H](CO)NC(=O)[C@H](CC(C)C)NC(=O)[C@H](CCCNC(=N)N)NC(=O)[C@H](Cc4ccc(O)cc4)NC(=O)[C@H](CCCCN)NC(=O)[C@H](Cc4ccc(O)cc4)NC(=O)[C@H](CO)NC(=O)[C@H](Cc4c[nH]cn4)NC(=O)[C@H](CCCCN)NC3=O)C(=O)N[C@@H](CCCNC(=N)N)C(=O)N[C@@H](CCCCN)C(=O)N[C@@H]([C@@H](C)O)C(=O)N2)NC(=O)[C@H](CCCNC(=N)N)NC(=O)[C@H](CO)NC(=O)[C@H](CCCCN)NC(=O)[C@@H]2CCCN2C(=O)[C@H]([C@@H](C)CC)NC(=O)[C@H]([C@@H](C)O)NC(=O)[C@H](CC(=O)O)NC1=O [[Lys16, Tyr21]ShK-amide]",0.246,2.83,3.19,–
CC[C@H](C)[C@@H]1NC(=O)[C@@H](NC(=O)[C@H](CO)NC(=O)[C@@H](N)CCCNC(=N)N)CSSC[C@@H](C(=O)O)NC(=O)[C@H](C)NC(=O)CNC(=O)[C@@H]2CSSC[C@@H]3NC(=O)[C@H](CCC(N)=O)NC(=O)[C@H](Cc4ccccc4)NC(=O)[C@H](C)NC(=O)[C@H]([C@@H](C)O)NC(=O)[C@H](CSSC[C@H](NC(=O)[C@H](Cc4ccccc4)NC(=O)[C@H](CO)NC(=O)[C@H](CC(C)C)NC(=O)[C@H](CCCNC(=N)N)NC(=O)[C@H](Cc4ccc(O)cc4)NC(=O)[C@H](CCCCN)NC(=O)[C@H](CCSC)NC(=O)[C@H](CO)NC(=O)[C@H](Cc4c[nH]cn4)NC(=O)[C@H](CCCCN)NC3=O)C(=O)N[C@@H](CCCNC(=N)N)C(=O)N[C@@H](CCCCN)C(=O)N[C@@H]([C@@H](C)O)C(=O)N2)NC(=O)[C@H](CCCNC(=N)N)NC(=O)[C@H](CO)NC(=O)[C@H](CCCCN)NC(=O)[C@@H]2CCCN2C(=O)[C@H]([C@@H](C)CC)NC(=O)[C@H]([C@@H](C)O)NC(=O)[C@H](CC(=O)O)NC1=O [[Ala34]ShK],0.123,0.063,0.075,–
"CC[C@H](C)[C@@H]1NC(=O)[C@H](CC(=O)O)NC(=O)[C@H]([C@@H](C)O)NC(=O)[C@@H]2CSSC[C@@H]3NC(=O)[C@H](CC(C)C)NC(=O)[C@H](CC(N)=O)NC(=O)[C@H](CC(C)C)NC(=O)[C@H](CCCNC(=N)N)NC(=O)[C@H](Cc4ccc(O)cc4)NC(=O)[C@H](CCCCN)NC(=O)[C@H](CCSC)NC(=O)[C@H](CO)NC(=O)[C@H]([C@@H](C)O)NC(=O)[C@H](CCCNC(=N)N)NC(=O)[C@H](CSSC[C@H](NC(=O)[C@H]([C@@H](C)O)NC(=O)[C@H](CCCCN)NC(=O)[C@H](CCCNC(=N)N)NC3=O)C(=O)NCC(=O)N[C@@H](CO)C(=O)N[C@H](C(=O)O)CSSC[C@H](NC(=O)[C@@H](NC(=O)[C@@H](N)CCCNC(=N)N)[C@@H](C)O)C(=O)N[C@@H](CCCCN)C(=O)N[C@@H](CC(=O)O)C(=O)N[C@@H](CC(C)C)C(=O)N[C@@H]([C@@H](C)CC)C(=O)N3CCC[C@H]3C(=O)N[C@@H](C(C)C)C(=O)N[C@@H](CO)C(=O)N[C@@H](CCC(=O)O)C(=O)N2)NC(=O)[C@H](CCCNC(=N)N)NC1=O [HmK, reference compound] (H-RTCKDLIPVSECTDIRCRTSMKYRLNLCRKTCGSC-OH; disulfide 3-35, 12-28, 17-32)",0.9,0.85,1.2,–
CC[C@H](C)[C@@H]1NC(=O)[C@@H](NC(=O)[C@H](CO)NC(=O)[C@@H](N)CCCNC(=N)N)CSSC[C@@H](C(=O)O)NC(=O)[C@H]([C@@H](C)O)NC(=O)CNC(=O)[C@@H]2CSSC[C@@H]3NC(=O)[C@H](CCC(N)=O)NC(=O)[C@H](Cc4ccccc4)NC(=O)[C@H](C)NC(=O)[C@H]([C@@H](C)O)NC(=O)[C@H](CSSC[C@H](NC(=O)[C@H](Cc4ccccc4)NC(=O)[C@H](CO)NC(=O)[C@H](CC(C)C)NC(=O)[C@H](CCCNC(=N)N)NC(=O)[C@H](Cc4ccc(O)cc4)NC(=O)[C@H](CCCCN)NC(=O)[C@H](CCSC)NC(=O)[C@H](CO)NC(=O)[C@H](Cc4c[nH]cn4)NC(=O)[C@H](CCCCN)NC3=O)C(=O)N[C@@H](CCCNC(=N)N)C(=O)N[C@@H](CCCCN)C(=O)N[C@@H]([C@@H](C)O)C(=O)N2)NC(=O)[C@H](CCCNC(=N)N)NC(=O)[C@H](CO)NC(=O)[C@H](CCCCN)NC(=O)[C@@H]2CCCN2C(=O)[C@H]([C@@H](C)CC)NC(=O)[C@H]([C@@H](C)O)NC(=O)[C@H](CCC(=O)O)NC1=O [[Glu5]ShK],3.3,16.9,–,24.6
"CC[C@H](C)[C@@H]1NC(=O)[C@@H](NC(=O)[C@H](CO)NC(=O)[C@@H](N)CCCNC(=N)N)CSSC[C@@H](C(N)=O)NC(=O)[C@H]([C@@H](C)O)NC(=O)CNC(=O)[C@@H]2CSSC[C@@H]3NC(=O)[C@H](CCCCN)NC(=O)[C@H](Cc4ccccc4)NC(=O)[C@H](C)NC(=O)[C@H]([C@@H](C)O)NC(=O)[C@H](CSSC[C@H](NC(=O)[C@H](Cc4ccccc4)NC(=O)[C@H](Cc4ccc(O)cc4)NC(=O)[C@H](CC(C)C)NC(=O)[C@H](CCCNC(=N)N)NC(=O)[C@H](Cc4ccc(O)cc4)NC(=O)[C@H](CCCCN)NC(=O)[C@H](CCSC)NC(=O)[C@H](CO)NC(=O)[C@H](Cc4c[nH]cn4)NC(=O)[C@H](CCCCN)NC3=O)C(=O)N[C@@H](CCCCN)C(=O)N[C@@H](CCCCN)C(=O)N[C@@H]([C@@H](C)O)C(=O)N2)NC(=O)[C@H](CCCNC(=N)N)NC(=O)[C@H](CO)NC(=O)[C@H](CCCCN)NC(=O)[C@@H]2CCCN2C(=O)[C@H]([C@@H](C)CC)NC(=O)[C@H]([C@@H](C)O)NC(=O)[C@H](CC(=O)O)NC1=O [[Lys16,29;Tyr26]ShK-amide]",0.084,1.04,0.754,–
CC[C@H](C)[C@@H]1NC(=O)[C@@H](NC(=O)[C@H](CO)NC(=O)[C@@H](N)CCCNC(=N)N)CSSC[C@@H](C(=O)O)NC(=O)[C@H]([C@@H](C)O)NC(=O)CNC(=O)[C@@H]2CSSC[C@@H]3NC(=O)[C@H](CCC(N)=O)NC(=O)[C@H](Cc4ccccc4)NC(=O)[C@H](C)NC(=O)[C@H]([C@@H](C)O)NC(=O)[C@H](CSSC[C@H](NC(=O)[C@H](Cc4ccccc4)NC(=O)[C@H](CO)NC(=O)[C@H](CC(C)C)NC(=O)[C@H](CCCNC(=N)N)NC(=O)[C@H](Cc4ccc(O)cc4)NC(=O)[C@H](CCCCN)NC(=O)[C@H](CCSC)NC(=O)[C@H](CO)NC(=O)[C@H](Cc4c[nH]cn4)NC(=O)[C@H](CCCCN)NC3=O)C(=O)N[C@@H](CCCNC(=N)N)C(=O)N[C@@H](CCCCN)C(=O)N[C@@H]([C@@H](C)O)C(=O)N2)NC(=O)[C@H](CCCNC(=N)N)NC(=O)[C@H](CO)NC(=O)[C@H](CCCCN)NC(=O)[C@@H]2CCCN2C(=O)[C@H]([C@@H](C)CC)NC(=O)[C@H](Cc2cccc3ccccc23)NC(=O)[C@H](CC(=O)O)NC1=O [[1-Nal6]ShK],0.15,0.86,0.962,–
